Test results from US11248013B2, “Tricyclic inhibitors of poly(ADP-ribose)polymerase” (Rakovina Therapeutics Inc., priority 2011, dated 2022).

target: PARP-1 (Homo sapiens (Human), UniProt P09874); experiment: PARP-1 Enzyme Assay (HT Universal Colorimetric PARP Assay Kit); format: biochemical; conditions: OD450, read-out: IC50 (PARP-1 inhibition)
Experimental: Inhibition of PARP-1 enzymatic activities was measured using an HT Universal Colorimetric PARP Assay Kit (Trevigen, catalogue #4677-096-K) following the standard procedures.
Serial dilutions of PARP compounds were added to appropriate wells. The compound was incubated with PARP enzyme at RT for 10 min, and the reaction was initiated by addition of the PARP substrate cocktail, Each concentration of compound was tested in triplicate wells. After 15 min reaction, the reaction was stopped, and the Strep-HRP was added into each well and incubated for 1 h at RT. After addition of TACS-Sapphire™ colorimetric substrate and incubated in dark for 15 min, the OD450 was read out with an EnVision instrument. IC50 values (the concentration at which 50% of the enzyme activity is inhibited) were calculated, which are determined over a range of different concentrations, normally from 10 μM to 0.1 nM.

Sequence of PARP-1 (P09874 whole entry): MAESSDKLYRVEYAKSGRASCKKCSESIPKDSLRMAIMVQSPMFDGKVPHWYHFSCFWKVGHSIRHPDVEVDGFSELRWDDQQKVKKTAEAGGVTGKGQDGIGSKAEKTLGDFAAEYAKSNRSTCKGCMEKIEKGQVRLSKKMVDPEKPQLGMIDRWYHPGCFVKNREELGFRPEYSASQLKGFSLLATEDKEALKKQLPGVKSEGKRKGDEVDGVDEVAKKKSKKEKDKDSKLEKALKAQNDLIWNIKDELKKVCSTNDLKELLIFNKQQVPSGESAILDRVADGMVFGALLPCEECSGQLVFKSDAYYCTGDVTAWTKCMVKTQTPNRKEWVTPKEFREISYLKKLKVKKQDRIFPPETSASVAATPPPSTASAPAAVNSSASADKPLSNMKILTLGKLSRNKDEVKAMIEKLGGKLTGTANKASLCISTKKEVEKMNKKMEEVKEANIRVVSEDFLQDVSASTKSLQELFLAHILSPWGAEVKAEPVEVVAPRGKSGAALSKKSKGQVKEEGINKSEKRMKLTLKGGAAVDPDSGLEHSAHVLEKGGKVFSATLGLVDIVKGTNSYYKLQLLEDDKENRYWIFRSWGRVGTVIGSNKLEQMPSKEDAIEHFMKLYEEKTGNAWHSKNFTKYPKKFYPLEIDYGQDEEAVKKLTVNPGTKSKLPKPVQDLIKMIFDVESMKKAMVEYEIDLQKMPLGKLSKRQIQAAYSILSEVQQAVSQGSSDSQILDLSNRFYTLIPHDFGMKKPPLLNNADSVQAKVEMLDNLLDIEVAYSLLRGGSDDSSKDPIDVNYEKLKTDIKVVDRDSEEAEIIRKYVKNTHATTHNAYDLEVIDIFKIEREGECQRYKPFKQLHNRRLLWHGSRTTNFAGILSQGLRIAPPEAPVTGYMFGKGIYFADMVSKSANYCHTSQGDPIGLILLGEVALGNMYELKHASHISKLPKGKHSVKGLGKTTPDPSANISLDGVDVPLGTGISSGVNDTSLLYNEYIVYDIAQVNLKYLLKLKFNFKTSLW

Row | Molecule | IC50 [nM]
1 | 4-(3-(1-(3,3-difluoropyrrolidine-1-carbonyl)-4-oxido-1,4-azaphosphinan-4-yl)-4-fluorobenzyl)phthalazin-1(2H)-one [Example 6] | < 100
2 | O=c1[nH]nc(Cc2ccc(F)c(P3(=O)CCN(c4cccc(C(F)(F)F)n4)CC3)c2)c2ccccc12 [Example 31, 4-(4-fluoro-3-(4-oxido-1-(6-(trifluoromethyl)pyridin-2-yl)-1,4-azaphosphinan-4-yl)benzyl)phthalazin-1(2H)-one] | 100 to 1000
3 | O=c1[nH]nc(Cc2ccc(F)c(P3(=O)CCN(c4ncccc4C(F)(F)F)CC3)c2)c2ccccc12 [Example 27, 4-(4-fluoro-3-(4-oxido-1-(3-(trifluoromethyl)pyridin-2-yl)-1,4-azaphosphinan-4-yl)benzyl)phthalazin-1(2H)-one] | 100 to 1000
4 | CCCc1cnc(N2CCP(=O)(c3cc(Cc4n[nH]c(=O)c5ccccc45)ccc3F)CC2)nc1 [Example 37, 4-(4-fluoro-3-(4-oxido-1-(5-(n-propyl)pyrimidin-2-yl)-1,4-azaphosphinan-4-yl)benzyl)phthalazin-1(2H)-one] | 100 to 1000
5 | O=c1[nH]nc(Cc2ccc(F)c(P3(=O)CCN(Cc4ccccc4)CC3)c2)c2ccccc12 [Example 1, 4-(3-(1-benzyl-4-oxido-1,4-azaphosphinan-4-yl)-4-fluorobenzyl)phthalazin-1(2H)-one] | < 100
6 | O=C(C1CCCC1)N1CCP(=O)(c2cc(Cc3n[nH]c(=O)c4ccccc34)ccc2F)CC1 [Example 2, 4-(3-(1-(cyclopentanecarbonyl)-4-oxido-1,4-azaphosphinan-4-yl)-4-fluorobenzyl)phthalazin-1 (2H)-one] | 1000 to 10000
7 | CN1CCP(=O)(c2cc(Cc3n[nH]c(=O)c4ccccc34)ccc2F)CC1 [Example 40, 4-(4-fluoro-3-(1-methyl-4-oxido-1,4-azaphosphinan-4-yl)benzyl)phthalazin-1(2H)-one] | 100 to 1000
8 | O=c1[nH]nc(Cc2ccc(F)c(P3(=O)CCN(c4cccc(F)n4)CC3)c2)c2ccccc12 [Example 25, 4-(4-fluoro-3-(1-(6-fluoropyridin-2-yl)-4-oxido-1,4-azaphosphinan-4-yl)benzyl)phthalazin-1(2H)-one] | < 100
9 | N#Cc1ccc(N2CCP(=O)(c3cc(Cc4n[nH]c(=O)c5ccccc45)ccc3F)CC2)nc1 [Example 14, 6-(4-(2-fluoro-5-((4-oxo-3,4-dihydrophthalazin-1-yl)methyl)phenyl)-4-oxido-1,4-azaphosphinan-1-yl)nicotinonitrile] | < 100
10 | O=c1[nH]nc(Cc2ccc(F)c(P3(=O)CCN(c4ccc(C(F)(F)F)cn4)CC3)c2)c2ccccc12 [Example 24, 4-(4-fluoro-3-(4-oxido-1-(5-(trifluoromethyl)pyridin-2-yl)-1,4-azaphosphinan-4-yl)benzyl)phthalazin-1(2H)-one] | < 100
11 | O=c1[nH]nc(Cc2ccc(F)c(P3(=O)CCN(c4ncc(F)cc4F)CC3)c2)c2ccccc12 [Example 28, 4-(4-fluoro-3-(1-(3,5-difluoropyridin-2-yl)-4-oxido-1,4-azaphosphinan-4-yl)benzyl)phthalazin-1(2H)-one] | < 100
12 | 4-(3-(1-(3,3-dimethylbutanoyl)-4-oxido-1,4-azaphosphinan-4-yl)-4-fluorobenzyl)phthalazin-1(2H)-one [Example 5] | < 100

Continued, values first:

Row | IC50 [nM] | Molecule
13 | < 100 | CC(C)N1CCP(=O)(c2cc(Cc3n[nH]c(=O)c4ccccc34)ccc2F)CC1 [Example 42, 4-(4-fluoro-3-(1-isopropyl-4-oxido-1,4-azaphosphinan-4-yl)benzyl)phthalazin-1(2H)-one]
14 | < 100 | O=c1[nH]nc(Cc2ccc(F)c(P3(=O)CCN(c4cc(C(F)(F)F)ccn4)CC3)c2)c2ccccc12 [Example 26, 4-(4-fluoro-3-(4-oxido-1-(4-(trifluoromethyl)pyridin-2-yl)-1,4-azaphosphinan-4-yl)benzyl)phthalazin-1(2H)-one]
15 | < 100 | CC(C)(C)CN1CCP(=O)(c2cc(Cc3n[nH]c(=O)c4ccccc34)ccc2F)CC1 [Example 46, 4-(4-fluoro-3-(1-neopentyl-4-oxido-l,4-azaphosphinan-4-yl)benzyl)phthalazin-1(2H)-one]
16 | < 100 | (+)-4-[[4-fluoro-3-(4-oxido-1-(pyrimidin-2-yl)-1,4-azaphosphinan-4-yl)phenyl)](hydroxymethyl)]-7-fluorophthalazin-1(2H)-one [Example 59]
17 | < 100 | CC(=O)c1cccnc1N1CCP(=O)(c2cc(Cc3n[nH]c(=O)c4ccccc34)ccc2F)CC1 [Example 34, 4-(4-fluoro-3-(4-oxido-1-(3-(acetyl)pyridin-2-yl)-1,4-azaphosphinan-4-yl)benzyl)phthalazin-1(2H)-one]
18 | < 100 | O=c1[nH]nc(Cc2ccc(F)c(P3(=O)CCN(c4ncc(Cl)cn4)CC3)c2)c2ccccc12 [Example 36, 4-(4-fluoro-3-(4-oxido-1-(5-(chloro)pyrimidin-2-yl)-1,4-azaphosphinan-4-yl)benzyl)phthalazin-1(2H)-one]
19 | < 100 | O=c1[nH]nc(Cc2ccc(F)c(P3(=O)CCN(c4ncc(F)cn4)CC3)c2)c2ccccc12 [compound 35, 4-(4-fluoro-3-(4-oxido-1-(5-(fluoro)pyrimidin-2-yl)-1,4-azaphosphinan-4-yl)benzyl)phthalazin-1(2H)-one]
20 | < 100 | O=c1[nH]nc(Cc2ccc(F)c(P3(=O)CCN(C4CC4)CC3)c2)c2ccc(F)cc12 [Example 54, 4-(3-(1-cyclopropyl-4-oxido-1,4-azaphosphinan-4-yl)-4-fluorobenzyl)-7-fluorophthalazin-1(2H)-one]
21 | < 100 | O=c1[nH]nc(Cc2ccc(F)c(P3(=O)CCN(c4ncccc4F)CC3)c2)c2ccccc12 [Example 23, 4-(4-fluoro-3-(1-(3-fluoropyridin-2-yl)-4-oxido-1,4-azaphosphinan-4-yl)benzyl)phthalazin-1(2H)-one]
22 | < 100 | N#Cc1cccnc1N1CCP(=O)(c2cc(Cc3n[nH]c(=O)c4ccccc34)ccc2F)CC1 [Example 16, 2-(4-(2-fluoro-5-((4-oxo-3,4-dihydrophthalazin-1-yl)methyl)phenyl)-4-oxido-1,4-azaphosphinan-1-yl)nicotinonitrile]
23 | < 100 | O=c1[nH]nc(Cc2ccc(F)c(P3(=O)CCN(c4ccnc(Cl)n4)CC3)c2)c2ccccc12 [Example 17, 4-(3-(1-(2-chloropyrimidin-4-yl)-4-oxido-1,4-azaphosphinan-4-yl)-4-fluorobenzyl)phthalazin-1(2H)-one]
24 | < 100 | O=c1[nH]nc(Cc2ccc(F)c(P3(=O)CCN(C4CC4)CC3)c2)c2ccccc12 [Example 38, 4-(3-(1-cyclopropyl-4-oxido-1,4-azaphosphinan-4-yl)-4-fluorobenzyl)phthalazin-1(2H)-one]
25 | < 100 | O=c1[nH]nc(Cc2ccc(F)c(P3(=O)CCN(c4cc(Cl)ncn4)CC3)c2)c2ccccc12 [Example 22, 4-(3-(1-(6-chloropyrimidin-4-yl)-4-oxido-1,4-azaphosphinan-4-yl)-4-fluorobenzyl)phthalazin-1(2H)-one]
26 | < 100 | O=c1[nH]nc(Cc2ccc(F)c(P3(=O)CCN(c4nccc(Cl)n4)CC3)c2)c2ccccc12 [Example 18, 4-(3-(1-(4-chloropyrimidin-2-yl)-4-oxido-1,4-azaphosphinan-4-yl)-4-fluorobenzyl)phthalazin-1(2H)-one]
